Test results from patent US12077503B2, “Substituted cyclic amides and their use as herbicides” (FMC CORPORATION, priority 2015, dated 2024).

Experiments:
Type in all cases: in vivo
[1] = tested on: rice (Oryra sativa); assay: Test B flooded paddy test; conditions: Oryza sativa, Flood, 250 g ai/ha; scale of 0 to 100 where 0 is no effect and 100 is complete control; read-out: Rice plant response rating
Method in brief: (§1)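 Evaluation by eye, against controls, occurred 13–15 d post-treatment in a greenhouse, using a 0 (no effect) to 100 (complete control) scale. Application was into the paddy water, 3 cm deep over the soil, on 2-leaf plants.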

[2] = tested on: ducksalad (Heteranthera limosa); assay: Test B flooded paddy test; conditions: Heteranthera limosa, Flood, 250 g ai/ha; scale of 0 to 100 where 0 is no effect and 100 is complete control; read-out: Ducksalad plant response rating
Method in brief: as §1

[3] = tested on: barnyardgrass (Echinochloa crus-galli); assay: Test B flooded paddy test; conditions: Echinochloa crus-galli, Flood, 250 g ai/ha; scale of 0 to 100 where 0 is no effect and 100 is complete control; read-out: Barnyardgrass plant response rating
Method in brief: as §1

[4] = tested on: sedge, umbrella (small-flower umbrella sedge, Cyperus difformis); assay: Test B flooded paddy test; conditions: Cyperus difformis, Flood, 250 g ai/ha; scale of 0 to 100 where 0 is no effect and 100 is complete control; read-out: Sedge, Umbrella plant response rating
Method in brief: as §1

[5] = tested on: blackgrass (Alopecurus myosuroides); assay: Test A postemergence; conditions: Alopecurus myosuroides, post-emergence, 240 h, 125 g ai/ha, Postemergence; visual injury after approximately 10 d; 0 to 100 scale where 0 is no effect and 100 is complete control; read-out: Plant response rating, Blackgrass
Method in brief: (§2)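 Greenhouse, ~10 d after spray; visual injury vs untreated controls, 0 = no effect, 100 = complete control. Preemergence: directed soil spray over planted seeds. Postemergence: plants 2–10 cm, 1–2 leaf stage. Loam/sand blend. Compound in non-phytotoxic solvent with surfactant.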

[6] = tested on: corn (Zea mays); assay: Test A postemergence; conditions: Zea mays, post-emergence, 240 h, 125 g ai/ha, Postemergence; visual injury after approximately 10 d; 0 to 100 scale where 0 is no effect and 100 is complete control
Method in brief: as §2

[7] = tested on: barnyardgrass (Echinochloa crus-galli); assay: Test A postemergence; conditions: Echinochloa crus-galli, post-emergence, 240 h, 125 g ai/ha, Postemergence; visual injury after approximately 10 d; 0 to 100 scale where 0 is no effect and 100 is complete control; read-out: Plant response rating, Barnyardgrass
Method in brief: as §2

[8] = tested on: wheat (Triticum aestivum); assay: Test A postemergence; conditions: Triticum aestivum, post-emergence, 240 h, 125 g ai/ha, Postemergence; visual injury after approximately 10 d; 0 to 100 scale where 0 is no effect and 100 is complete control; read-out: Plant response rating, Wheat
Method in brief: as §2

[9] = tested on: Kochia (Kochia scoparia); assay: Test A postemergence; conditions: Bassia scoparia, post-emergence, 240 h, 125 g ai/ha, Postemergence; visual injury after approximately 10 d; 0 to 100 scale where 0 is no effect and 100 is complete control; read-out: Plant response rating, Kochia
Method in brief: as §2

[10] = tested on: pigweed (Amaranthus retroflexus); assay: Test A postemergence; conditions: Amaranthus retroflexus, post-emergence, 240 h, 125 g ai/ha, Postemergence; visual injury after approximately 10 d; 0 to 100 scale where 0 is no effect and 100 is complete control; read-out: Plant response rating, Pigweed
Method in brief: as §2

[11] = tested on: Galium (catchweed bedstraw, Galium aparine); assay: Test A postemergence; conditions: Galium, post-emergence, 240 h, 125 g ai/ha, Postemergence; visual injury after approximately 10 d; 0 to 100 scale where 0 is no effect and 100 is complete control; read-out: Plant response rating, Galium
Method in brief: as §2

[12] = tested on: giant foxtail (Setaria faberii); assay: Test A postemergence; conditions: Setaria faberi, post-emergence, 240 h, 125 g ai/ha, Postemergence; visual injury after approximately 10 d; 0 to 100 scale where 0 is no effect and 100 is complete control; read-out: Plant response rating, Foxtail, Giant
Method in brief: as §2

[13] = tested on: ryegrass, Italian (Italian ryegrass, Lolium multiflorum); assay: Test A postemergence; conditions: Lolium multiflorum, post-emergence, 240 h, 125 g ai/ha, Postemergence; visual injury after approximately 10 d; 0 to 100 scale where 0 is no effect and 100 is complete control; read-out: Plant response rating, Ryegrass, Italian
Method in brief: as §2

[14] = tested on: ragweed (common ragweed, Ambrosia elatior); assay: Test A postemergence; conditions: Ambrosia artemisiifolia, post-emergence, 240 h, 125 g ai/ha, Postemergence; visual injury after approximately 10 d; 0 to 100 scale where 0 is no effect and 100 is complete control; read-out: Plant response rating, Ragweed
Method in brief: as §2

[15] = tested on: barnyardgrass (Echinochloa crus-galli); assay: Test A preemergence; conditions: Echinochloa crus-galli, pre-emergence, 240 h
Method in brief: as §2

[16] = tested on: Kochia (Kochia scoparia); assay: Test A preemergence; conditions: Bassia scoparia, pre-emergence, 240 h
Method in brief: as §2

[17] = tested on: pigweed (Amaranthus retroflexus); assay: Test A preemergence; conditions: Amaranthus retroflexus, pre-emergence, 240 h
[18] = tested on: giant foxtail (Setaria faberii); assay: Test A preemergence; conditions: Setaria faberi, pre-emergence, 240 h
Method in brief: as §2

[19] = tested on: ryegrass, Italian (Italian ryegrass, Lolium multiflorum); assay: Test A preemergence; conditions: Lolium multiflorum, pre-emergence, 240 h
Method in brief: as §2

[20] = tested on: ragweed (common ragweed, Ambrosia elatior); assay: Test A preemergence; conditions: Ambrosia artemisiifolia, pre-emergence, 240 h
Method in brief: as §2

## CCc1cc(CC)cc([C@H]2CNC(=O)[C@@H]2C(=O)Nc2ccccc2C(F)(F)F)c1 [Compound 969]
[1]
  pest or weed control at 250 g/ha: 0%
[2]
  pest or weed control at 250 g/ha: 0%
[3]
  pest or weed control at 250 g/ha: 0%
[4]
  pest or weed control at 250 g/ha: 0%
[5]
  pest or weed control at 125 g/ha: 0%
[6]
  Corn plant response rating (crop injury, 0 = no effect, 100 = complete kill) at 125 g/ha: 50%
[7]
  pest or weed control at 125 g/ha: 50%
[8]
  plant injury at 125 g/ha: 30%
[9]
  pest or weed control at 125 g/ha: 0%
[10]
  pest or weed control at 125 g/ha: 0%
[11]
  pest or weed control at 125 g/ha: 20%
[12]
  pest or weed control at 125 g/ha: 50%
[13]
  pest or weed control at 125 g/ha: 20%
[14]
  pest or weed control at 125 g/ha: 0%
[15]; 125 g ai/ha, Preemergence, visual injury rating after approximately 10 d, read-out: Barnyardgrass plant response rating (0 to 100 scale, 0 is no effect, 100 is complete control)
  pest or weed control at 125 g/ha: 50%
[15]; 500 g ai/ha, preemergence, visual injury rating about 10 d after treatment, 0 to 100 scale (0 no effect, 100 complete control), read-out: Barnyardgrass plant response rating
  pest or weed control at 500 g/ha: 80%
[16]; 125 g ai/ha, Preemergence, visual injury rating after approximately 10 d, read-out: Kochia plant response rating (0 to 100 scale, 0 is no effect, 100 is complete control)
  pest or weed control at 125 g/ha: 0%
[16]; 500 g ai/ha, preemergence, visual injury rating about 10 d after treatment, 0 to 100 scale (0 no effect, 100 complete control), read-out: Kochia plant response rating
  pest or weed control at 500 g/ha: 0%
[17]; 125 g ai/ha, Preemergence, visual injury rating after approximately 10 d, read-out: Pigweed plant response rating (0 to 100 scale, 0 is no effect, 100 is complete control)
  pest or weed control at 125 g/ha: 0%
[17]; 500 g ai/ha, preemergence, visual injury rating about 10 d after treatment, 0 to 100 scale (0 no effect, 100 complete control), read-out: Pigweed plant response rating
  pest or weed control at 500 g/ha: 0%
[18]; 125 g ai/ha, Preemergence, visual injury rating after approximately 10 d, read-out: Foxtail, Giant plant response rating (0 to 100 scale, 0 is no effect, 100 is complete control)
  pest or weed control at 125 g/ha: 90%
[18]; 500 g ai/ha, preemergence, visual injury rating about 10 d after treatment, 0 to 100 scale (0 no effect, 100 complete control), read-out: Foxtail, Giant plant response rating
  pest or weed control at 500 g/ha: 90%
[19]; 125 g ai/ha, Preemergence, visual injury rating after approximately 10 d, read-out: Ryegrass, Italian plant response rating (0 to 100 scale, 0 is no effect, 100 is complete control)
  pest or weed control at 125 g/ha: 40%
[19]; 500 g ai/ha, preemergence, visual injury rating about 10 d after treatment, 0 to 100 scale (0 no effect, 100 complete control), read-out: Ryegrass, Italian plant response rating
  pest or weed control at 500 g/ha: 30%
[20]; 125 g ai/ha, Preemergence, visual injury rating after approximately 10 d, read-out: Ragweed plant response rating (0 to 100 scale, 0 is no effect, 100 is complete control)
  pest or weed control at 125 g/ha: 0%
[20]; 500 g ai/ha, preemergence, visual injury rating about 10 d after treatment, 0 to 100 scale (0 no effect, 100 complete control), read-out: Ragweed plant response rating
  pest or weed control at 500 g/ha: 0%
